These results are taken from ChEMBL document CHEMBL6074654, “Inhibitors targeting the PWWP domain-containing proteins” (Eur J Med Chem, 2024).

Sequence of DNA (cytosine-5)-methyltransferase 1 (P26358 whole entry): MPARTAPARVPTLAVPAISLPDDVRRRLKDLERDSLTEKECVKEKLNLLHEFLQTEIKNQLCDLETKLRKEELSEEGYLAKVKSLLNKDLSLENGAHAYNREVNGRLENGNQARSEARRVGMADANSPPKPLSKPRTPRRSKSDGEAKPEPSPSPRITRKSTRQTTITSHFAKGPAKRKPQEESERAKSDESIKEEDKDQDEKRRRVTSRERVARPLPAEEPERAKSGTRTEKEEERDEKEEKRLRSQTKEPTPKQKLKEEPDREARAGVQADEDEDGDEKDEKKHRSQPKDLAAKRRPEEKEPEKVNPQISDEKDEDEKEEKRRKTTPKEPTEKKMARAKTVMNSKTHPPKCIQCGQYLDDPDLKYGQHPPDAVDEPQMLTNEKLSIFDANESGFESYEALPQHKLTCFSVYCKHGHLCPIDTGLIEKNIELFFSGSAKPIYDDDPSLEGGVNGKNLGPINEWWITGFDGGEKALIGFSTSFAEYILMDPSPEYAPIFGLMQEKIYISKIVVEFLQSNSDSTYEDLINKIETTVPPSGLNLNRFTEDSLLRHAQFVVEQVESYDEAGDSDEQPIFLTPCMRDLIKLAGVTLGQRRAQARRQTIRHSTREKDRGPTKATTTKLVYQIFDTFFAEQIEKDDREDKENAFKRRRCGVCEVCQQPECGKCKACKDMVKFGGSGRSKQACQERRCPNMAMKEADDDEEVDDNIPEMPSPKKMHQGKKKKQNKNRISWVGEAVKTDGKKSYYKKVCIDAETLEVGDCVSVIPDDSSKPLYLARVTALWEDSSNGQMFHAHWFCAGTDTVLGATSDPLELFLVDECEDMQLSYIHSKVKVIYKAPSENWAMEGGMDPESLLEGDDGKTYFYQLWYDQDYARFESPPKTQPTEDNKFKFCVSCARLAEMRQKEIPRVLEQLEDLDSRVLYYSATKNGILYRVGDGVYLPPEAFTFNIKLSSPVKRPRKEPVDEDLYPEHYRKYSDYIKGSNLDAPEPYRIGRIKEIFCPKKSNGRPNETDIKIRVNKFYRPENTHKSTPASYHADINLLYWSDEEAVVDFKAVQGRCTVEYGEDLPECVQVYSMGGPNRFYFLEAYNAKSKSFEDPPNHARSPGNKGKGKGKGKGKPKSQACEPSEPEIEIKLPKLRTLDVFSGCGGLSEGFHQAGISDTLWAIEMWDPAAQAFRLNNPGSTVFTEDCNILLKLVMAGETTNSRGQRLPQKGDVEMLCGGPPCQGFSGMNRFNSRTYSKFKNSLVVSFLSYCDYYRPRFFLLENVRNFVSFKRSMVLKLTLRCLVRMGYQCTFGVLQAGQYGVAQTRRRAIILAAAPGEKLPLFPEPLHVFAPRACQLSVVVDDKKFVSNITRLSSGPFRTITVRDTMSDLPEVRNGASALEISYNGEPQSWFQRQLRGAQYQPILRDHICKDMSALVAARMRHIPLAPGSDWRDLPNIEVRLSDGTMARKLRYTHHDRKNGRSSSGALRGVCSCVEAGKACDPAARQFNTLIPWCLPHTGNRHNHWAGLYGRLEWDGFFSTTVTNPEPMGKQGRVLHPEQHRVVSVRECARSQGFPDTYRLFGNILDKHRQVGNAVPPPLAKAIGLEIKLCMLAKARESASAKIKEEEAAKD
Sequence of Protein cereblon/Histone-lysine N-methyltransferase NSD2 (Q96SW2 whole entry, one chain of several): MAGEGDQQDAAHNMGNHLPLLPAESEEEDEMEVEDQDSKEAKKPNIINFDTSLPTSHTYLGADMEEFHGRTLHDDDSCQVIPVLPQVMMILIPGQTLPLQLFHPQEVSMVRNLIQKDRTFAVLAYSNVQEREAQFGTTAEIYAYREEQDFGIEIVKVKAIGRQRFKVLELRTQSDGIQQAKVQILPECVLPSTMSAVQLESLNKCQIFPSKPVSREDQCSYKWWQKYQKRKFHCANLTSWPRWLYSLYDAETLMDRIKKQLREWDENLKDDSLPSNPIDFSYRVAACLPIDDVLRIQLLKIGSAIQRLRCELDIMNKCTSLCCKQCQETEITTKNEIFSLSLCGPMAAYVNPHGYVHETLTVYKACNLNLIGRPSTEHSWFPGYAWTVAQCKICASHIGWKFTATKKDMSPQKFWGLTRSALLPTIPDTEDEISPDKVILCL

In the first assay the test system is U2OS. As to the kind of experiment: Antiproliferative activity against human U2OS cells.
For orientation: IC50 means the concentration that inhibits the measured activity by half. The compound `O=C1COc2cc(C(=O)N(Cc3ccc(C(=O)Nc4ccncn4)cc3)C3CC3)ccc2N1` showed an IC50 of 1.2 µM.

The next assay has as its target Protein cereblon/Histone-lysine N-methyltransferase NSD2 (Homo sapiens, UniProt O96028+Q96SW2). Kind of assay: PROTAC activity at CRBN/NSD2 in human VCaP cells assessed as induction of NSD2 degradation incubated for 24 hrs by immunoblot analysis. Type of assay: cell-based. In general terms: In western blotting, separated proteins are transferred to a membrane and probed.
As usually defined, the DC50 is the concentration giving 50% degradation. On to `N=C(N)NCCC[C@H](N)C(=O)NCCCCCCNC(=O)c1ccc(NC(=O)c2ccc(CN(C(=O)c3ccc4c(c3)OCC(=O)N4)C3CC3)cc2)cc1`, for which the DC50 came out at 1.2 µM.

For a further assay, the target named is Histone-lysine N-methyltransferase, H3 lysine-36 specific (Homo sapiens, UniProt Q96L73). Kind of assay: Inhibition of NSD1-SET (unknown origin).
In turn, `O=C1C=CC(=O)c2ccccc21` [NAPHTHOQUINONE] displayed an IC50 of 2 µM.
As to `Cc1cc(/C=C/c2ccc3cc(N(C)C)ccc3[n+]2C)c(C)n1-c1ccccc1`, the IC50 was 2.6 µM.
Same read-out and setting: the value for `CN1C[C@H](C(=O)N[C@]2(C)C[C@@]3(O)C4CCCN4C(=O)[C@H](Cc4ccccc4)N3C2=O)C=C2c3cccc4[nH]cc(c34)C[C@H]21` (some centres not stated) was 5.9 µM; that for `CC(C)C[C@H]1C(=O)N2CCCC2[C@]2(O)O[C@](NC(=O)[C@@H]3C=C4c5cccc6[nH]cc(c56)CC4N(C)C3)(C(C)C)C(=O)N12` (some centres not stated) was 4.9 µM; that for `C[C@H]1COC2=C1C(=O)C(=O)c1c2ccc2c1CCCC2(C)C` [CRYPTOTANSHINONE] was 3.5 µM.
The same measure, in the same setting: the value for `CC1=CC(=O)c2c(O)cccc2C1=O` [PLUMBAGIN] was 5.7 µM.
Same read-out and setting: for `O=C(O)c1ccccc1-c1c2cc(I)c(=O)c(I)c-2oc2c(I)c(O)c(I)cc12` the value was 0.34 µM; for `Cc1coc2c1C(=O)C(=O)c1c-2ccc2c1CCCC2(C)C` [TANSHINONE IIA], 1.4 µM.
`Cc1coc2c1C(=O)C(=O)c1c-2ccc2c(C)cccc12` [TANSHINONE I]: half-maximal inhibition (IC50) required 3.1 µM.
On to `COc1cc(NC(C)CCCN)c2ncccc2c1` (configuration not stated) [PRIMAQUINE], for which the IC50 worked out at 1.8 µM.

A further assay addresses T1, Histone-lysine N-methyltransferase NSD2 (Homo sapiens, UniProt O96028).
T1 sequence (O96028 whole entry): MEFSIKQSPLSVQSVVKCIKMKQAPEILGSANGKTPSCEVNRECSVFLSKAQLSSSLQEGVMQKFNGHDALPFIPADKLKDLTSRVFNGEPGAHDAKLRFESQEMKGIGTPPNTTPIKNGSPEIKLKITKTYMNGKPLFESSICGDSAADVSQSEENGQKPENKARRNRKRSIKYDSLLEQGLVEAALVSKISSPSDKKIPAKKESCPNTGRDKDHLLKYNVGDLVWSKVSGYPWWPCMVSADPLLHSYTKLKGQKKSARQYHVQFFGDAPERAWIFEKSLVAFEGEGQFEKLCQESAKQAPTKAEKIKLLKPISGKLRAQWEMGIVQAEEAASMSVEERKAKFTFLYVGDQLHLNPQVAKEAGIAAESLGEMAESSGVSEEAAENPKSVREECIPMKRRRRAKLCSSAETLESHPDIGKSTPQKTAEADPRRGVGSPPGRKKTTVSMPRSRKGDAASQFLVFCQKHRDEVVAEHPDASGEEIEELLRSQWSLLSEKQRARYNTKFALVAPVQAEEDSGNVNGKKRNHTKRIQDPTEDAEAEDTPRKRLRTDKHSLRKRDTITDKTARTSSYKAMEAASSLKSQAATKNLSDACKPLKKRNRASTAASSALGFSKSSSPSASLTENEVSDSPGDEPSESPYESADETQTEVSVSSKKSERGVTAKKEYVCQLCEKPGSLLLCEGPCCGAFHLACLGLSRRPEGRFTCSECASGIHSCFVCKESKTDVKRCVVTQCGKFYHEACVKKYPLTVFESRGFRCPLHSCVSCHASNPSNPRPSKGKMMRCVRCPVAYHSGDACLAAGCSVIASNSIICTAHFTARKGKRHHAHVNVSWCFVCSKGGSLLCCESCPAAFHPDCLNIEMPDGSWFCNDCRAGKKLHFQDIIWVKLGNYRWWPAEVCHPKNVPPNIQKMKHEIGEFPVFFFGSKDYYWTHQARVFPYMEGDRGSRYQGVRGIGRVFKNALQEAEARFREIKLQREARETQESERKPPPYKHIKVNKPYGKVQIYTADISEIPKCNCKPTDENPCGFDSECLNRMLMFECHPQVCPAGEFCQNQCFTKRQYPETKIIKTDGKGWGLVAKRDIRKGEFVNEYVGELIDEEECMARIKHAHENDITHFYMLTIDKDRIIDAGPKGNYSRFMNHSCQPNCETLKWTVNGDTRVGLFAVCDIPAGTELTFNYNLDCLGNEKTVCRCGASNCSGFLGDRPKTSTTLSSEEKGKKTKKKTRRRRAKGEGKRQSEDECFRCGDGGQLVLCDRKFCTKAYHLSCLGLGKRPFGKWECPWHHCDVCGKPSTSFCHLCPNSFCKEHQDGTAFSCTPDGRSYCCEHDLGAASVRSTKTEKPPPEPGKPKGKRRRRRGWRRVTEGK
Kind of assay: Inhibition of NSD2-SET domain (unknown origin).
Take `CCCN[C@@H](CC[C@H](N)C(=O)O)C[C@@H]1O[C@@H](n2cnc3c(N)ncnc32)[C@H](O)[C@@H]1O`: inhibition was half-maximal at 3.3 µM (IC50).

A further assay deals with DNA (cytosine-5)-methyltransferase 3A (Homo sapiens, UniProt Q9Y6K1). Kind of assay: Inhibition of DNMT3A (unknown origin).
Sequence of DNA (cytosine-5)-methyltransferase 3A (Q9Y6K1 whole entry, looked up): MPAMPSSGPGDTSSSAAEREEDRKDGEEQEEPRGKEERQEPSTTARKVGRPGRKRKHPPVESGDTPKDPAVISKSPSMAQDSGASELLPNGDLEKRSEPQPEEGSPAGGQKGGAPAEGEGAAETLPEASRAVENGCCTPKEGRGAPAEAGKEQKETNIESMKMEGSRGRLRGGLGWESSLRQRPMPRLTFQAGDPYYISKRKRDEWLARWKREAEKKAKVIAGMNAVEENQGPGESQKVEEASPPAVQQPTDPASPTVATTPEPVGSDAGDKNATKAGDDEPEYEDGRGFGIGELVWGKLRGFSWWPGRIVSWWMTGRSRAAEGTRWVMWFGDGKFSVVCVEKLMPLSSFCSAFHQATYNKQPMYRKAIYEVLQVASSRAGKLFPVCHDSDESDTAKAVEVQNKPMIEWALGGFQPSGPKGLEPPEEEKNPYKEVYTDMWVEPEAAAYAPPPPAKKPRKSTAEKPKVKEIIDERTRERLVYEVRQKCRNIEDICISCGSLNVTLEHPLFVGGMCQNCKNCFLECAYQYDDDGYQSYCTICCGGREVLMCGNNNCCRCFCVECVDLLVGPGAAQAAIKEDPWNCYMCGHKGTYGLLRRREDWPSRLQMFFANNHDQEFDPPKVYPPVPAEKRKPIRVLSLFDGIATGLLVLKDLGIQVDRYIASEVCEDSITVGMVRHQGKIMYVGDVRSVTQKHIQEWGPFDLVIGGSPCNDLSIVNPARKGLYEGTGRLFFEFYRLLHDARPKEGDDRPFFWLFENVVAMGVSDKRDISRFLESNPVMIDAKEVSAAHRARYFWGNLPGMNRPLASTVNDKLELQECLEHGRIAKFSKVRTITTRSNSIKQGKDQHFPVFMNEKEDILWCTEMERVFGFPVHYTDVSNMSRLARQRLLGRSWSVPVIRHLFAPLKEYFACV
As for `O=C1C=CC(=O)N1CCc1c[nH]c2ccccc12`, the IC50 is 3.2 µM.
Still for that read-out and setting: for `c1ccc2c(NCCNc3ncnc4cc(OCC5CCN(CCNc6ccnc7ccccc67)CC5)ccc34)cccc2c1` the value was 0.3 µM.
Same read-out and setting: for `Oc1cc(/C=N/Nc2nc3ccccc3s2)cc(O)c1O` the value was 1.6 µM; for `O=C(O)C(Cc1c[nH]c2ccccc12)N1C(=O)C=CC1=O` (configuration not stated), 28 µM.
Same read-out and setting: the value for `COc1ccc(Cl)cc1C(=O)NCCc1ccc(O)cc1` was 36 µM.
Take `CCN(CC)CCNC(=O)c1ccc(NCCCCCCCCCCCCN2C(=O)c3ccccc3C2=O)cc1`: the half-maximal inhibitory concentration (IC50) turned out to be 8.2 µM.

The next assay has as its target DNA (cytosine-5)-methyltransferase 1 (Homo sapiens, UniProt P26358). Kind of assay: Inhibition of DNMT1 (unknown origin).
As to `O=C1C=CC(=O)N1CCc1c[nH]c2ccccc12`, the IC50 worked out at 19 µM.
Still for that read-out and setting: for `c1ccc2c(NCCNc3ncnc4cc(OCC5CCN(CCNc6ccnc7ccccc67)CC5)ccc34)cccc2c1` the value was 20 µM; for `CCN(CC)CCNC(=O)c1ccc(NCCCCCCCCCCCCN2C(=O)c3ccccc3C2=O)cc1`, 4.9 µM.
